Data as given in patent US10633408B2, “Nucleoside-lipid compounds with pH-sensitive dialkylorthoester chains and their use for transportation or vectorization of at least one therapeutic agent” (UNIVERSITE DE BORDEAUX, priority 2015, dated 2020).

Assays:
[1] = Small-angle X-ray scattering (SAXS) of compound 6/DOPC; type: physicochemical; conditions: with DOPC (mol ratio 50/50), incubation at pH=5 and 37° C.
Description: […] SAXS experiments were carried out at the Centre de Recherche Paul Pascal, Pessac, France on a NanoStar (Bruker). With a sample to detector distance equal to 650 mm and a radiation wavelength of A=0.154 nm, the scattering wave vectors in reciprocal space ranged from q=0.16 nm^−1 and 3.4 nm^−1.
The beam size at the sample position was 0.45 mm (0). Images were captured by the HiStar (Bruker).
The array of detection totalizes 1024×1024 pixels, each one with 100 μm for side. Data were radially averaged and corrected for background scattering by using the software SAXS-Bruker. All experiments were carried out on thermally equilibrated samples at 25° C., which was obtained by keeping the sample holders under water circulation at controlled temperature.

[2] = DLS of nucleolipid/DOPE liposomes and siRNA complexes; type: physicochemical; conditions: for size of siRNA complexes with siRNA RECQL4 / size of siRNA complexes with siRNA luciferase: 10 pmol siRNA + 2 nmol nucleolipid/DOPE, serum-free medium; for diameter of liposomes: nucleolipid/DOPE liposomes in water
Description: (§1) Compound 6 and DOPE were mixed with molar ratio and dissolved in methylene chloride. The solvent was evaporated with nitrogen flow while stirring to prepare lipids films. This preparation was rehydrated with 1 mL of water, them submitted to Vortex, and the tube was put in ultrasonic bath (37 kHz) during 15-20 min at 15° C. The same experiment was carried out with DOTAU/DOPE (1:1) Liposomes were analysed by DLS (Malvern, Zetasizer) and measured 74 nm of diameters for orthoester and 48 nm for DOTAU. 10 pmol of siRNA were added to 2 nmol of orthoester/DOPE in 100 μL of PRMI 1640 serum-free medium. After submitting to Vortex, this solution was incubated 20 min at RT and transferred in wells. The siRNA orthoester/DOPE complexes were analysed by DLS and measured at 90 nm with siRNA luciferase and at 100 nm with siRNA RECQL4 for orthoester (69 nm and 63 nm, respectively for DOTAU).

[3] = 1H NMR kinetic study of orthoester hydrolysis; type: physicochemical; conditions: for rate of hydrolysis of the orthoester function, effect of pH: MeOD:phosphate buffer (1:2), pH 5 vs 7.4, 37° C.
Description: 1HNMR experiments were performed to study the kinetics of hydrolysis for both anionic and cationic compounds of formula (I) at pH 5 and 7.4 by measuring the percentage of hydrolyzed compound versus time.
10 mg of cationic compound (6) prepared in example 2 or anionic compound (11) prepared in example 6 were dissolved in a mixture of MeOD:Buffer phosphate (1:2) (pH 5 or 7.4), mixed and placed in a NMR tube. ^1H NMR Experiment was performed at 37° C. at 300 MHz on a BRUKER® Avance DPX-300.
After hydrolysis of the orthoester function, the chemical shifts of the thymidine CH3 protons are shifted upfield and downfield for compound 6 and 11, respectively. Thus, the percentage of hydrolysis versus time was followed by integrating the signals of the CH3 protons.

[4] = Liposome characterization by dynamic light scattering and zeta potential; type: physicochemical; conditions: liposomes of the compound alone, 1 mg/mL in Milli-Q water; for Pdi (polydispersity) of liposomes / d (diameter) of liposomes: DLS
Description: Zeta potential measurements and Dynamic light scattering (DLS) measurements of liposomes were performed with a MalvernNanoZS device.
100 μL of stock solutions of anionic or cationic compounds of formula (I) prepared in examples 2 and 6 (10 mg/mL in dichloromethane) were placed in glass tubes, dried under dry N2 and then desiccated under vacuum. Milli-Q Water was added to the dried lipid to obtain liposomes dispersions (1 mg/mL) after vortex agitation and sonication for 10 min.
The size distribution by intensity measured by dynamic light scattering (DLS) of liposomes prepared from compound 11 prepared in example 6 (anionic compounds of formula (I)) is shown on FIG. 3A, and of liposomes prepared from compound 6 prepared in example 2 (cationic compound of formula (I)) is shown on FIG. 3B.

[5] = system: RECQL4; test: Inhibition of RECQL4 by siRNA transfection, qPCR normalized with GAPDH; type: cell-based, human; conditions: MDA-MB-134 breast cancer cells, 72 h, nucleolipid/DOPE complexes, N/P 1/5 and 1/10
Description: as §1, with “RECQL4 is a human RecQ helicase implicated in three syndromes (Rothmund-Thompson, […] and Baller-Gerold) displaying accelerating aging, developmental abnormalities and cancer's predisposition. […] In this example, the efficacy of compound 6 prepared in example 2 in the transfection of siRNA targeting RECQL4 is evaluated. Compound” for “Compound”, “(1:1)” for “(1:1) Liposomes were analysed by DLS (Malvern, Zetasizer) and measured 74 nm of diameters for orthoester and 48 nm for DOTAU.”, “DOTAU). 2.10^5 MDA-MB-134 cells by well were added in 500 μL final volume. […] RNA was converted in cDNA by Reverse Transcription with QuantiTect kit (Qiagen). Then, a quantitative PCR was performed with 25 ng of cDNA, the master mix GoTaq qPCR (Promega) and specific primers (1 μM). […]” for “DOTAU).”

| size of siRNA complexes with siRNA RECQL4 [2] | size of siRNA complexes with siRNA luciferase [2] | diameter of liposomes [2] | SMILES | SAXS profile before and after incubation [1] | rate of hydrolysis of the orthoester function, effect of pH [3] | ζ (zeta potential) of liposomes [4] | Pdi (polydispersity) of liposomes [4] | d (diameter) of liposomes [4] | expression of RECQL4 after siRNA transfection [5] | rate of hydrolysis relative to cationic compound 6 ([3]; at both pH 5 and 7, 37° C.) |
| --- | --- | --- | --- | --- | --- | --- | --- | --- | --- | --- |
| 100 nm | 90 nm | 74 nm | CCCCCCCCCCCCCCCCOC(OCCCCCCCCCCCCCCCC)O[C@H]1C[C@H](n2cc(C)c(=O)[nH]c2=O)O[C@@H]1C[N+](C)(C)C.CS(=O)(=O)[O-] [Compound 6, 1-((2R,3S,5R)-3-(bis(hexadecyloxy)methoxy)-5-(5-methyl-2,4-dioxo-3,4-dihydropyrimidin-1 (2H)-yl)tetrahydrofuran-2-yl)-N,N,N-trimethyl-methanaminium methanesulfonate] | evolves from vesicular to multilamellar systems | higher rates of hydrolysis at pH=5 | 51.4 mV | 0.221 | 135.9 nm | able to inhibit the expression of RECQL4 |  |
|  |  |  | CCCCCCCCCCCCCCCCOC(OCCCCCCCCCCCCCCCC)O[C@H]1C[C@H](n2cc(C)c(=O)[nH]c2=O)O[C@@H]1COP(=O)(O)OC [Compound 11, ((2R,3S,5R)-3-(bis(hexadecyloxy)methoxy)-5-(5-methyl-2,4-dioxo-3,4-dihydropyrimidin-1(2H)-yl)tetrahydrofuran-2-yl)methyl methyl phosphate] |  | higher rates of hydrolysis at pH=5 | −43.3 mV | 0.163 | 100.4 nm |  | increased hydrolysis rates |
| 63 nm | 69 nm | 48 nm | CCCCCCCC/C=C\CCCCCCCC(=O)OC1C(C[N+](C)(C)C)OC(n2ccc(=O)[nH]c2=O)C1OC(=O)CCCCCCC/C=C\CCCCCCCC.Cc1ccc(S(=O)(=O)[O-])cc1 (stereo not drawn) [DOTAU, N-[5′-(2′,3′-dioleoyl)uridine]-N′,N′,N′-trimethylammonium tosylate, reference compound] |  |  |  |  |  | not able to transfect the siRNA targeting RECQL4 |  |
